Measured values taken from patent US5340929A, “Trisazo dye and dye composition containing the same” (Orient Chemical Industries, Ltd., priority 1992, dated 1994).
Where two headings read alike, the source gives them in different places.

Experiments:
[1] = Water resistance of writing (drawdown paper dipped in tap water, reflection density); type: physicochemical; settings: drawndown paper, 3% dye solution, air-dried one day
Method: Light resistance: The resulting dye was dissolved in a 5% aqueous diethylene glycol solution to obtain a 3% dye solution. […] A degree of discoloration was compared with that before testing.
Water resistance: The drawndown paper was air-dried for one day and dipped in tap water.
A: Reflection density is more than 70% of that before testing.
B: Reflection density is 50 to 70% of that before testing.
C: Reflection density is less than 50% that before testing.

[2] = tested on: strains TA98; type: cell-based
Method: Further, the trisazo dye of the present invention is a nontoxic trisazo dye which gives negative results in a back mutation test using an organism, which is generally known as a test method for evaluating toxicity, i.e. AMES test (mutation test).
Evaluation method of Ames test
Regarding various specimen solutions respectively containing a trisazo dyes obtained in Examples 1 to 8 of the present invention and dyes of Comparative Examples 1 to 3, the number of mutant colonies was determined using strains TA98. 2. When the ratio is less than 2, it is "negative" and, when the ratio is more than 2, it is "positive", and the results are shown in Table. 1.

[3] = Hue of dye / writing; type: physicochemical
[4] = tested on: strains TA98; settings: cited from earlier work

| Compound | Writing evaluation: Water resistance [1] | Ames test: ratio of the number of colonies to control ([2]; TA98, S-9 (+), 20 μg/plate) | Ames test: ratio of the number of colonies to control ([2]; TA98, S-9 (+), 78 μg/plate) | Ames test: ratio of the number of colonies to control ([2]; TA98, S-9 (+), 313 μg/plate) | Ames test: ratio of the number of colonies to control ([2]; TA98, S-9 (+), 1250 μg/plate) | Ames test: ratio of the number of colonies to control ([2]; TA98, S-9 (+), 5000 μg/plate) | Ames test: ratio of the number of colonies to control ([2]; TA98, S-9 (-), 20 μg/plate) | Ames test: ratio of the number of colonies to control ([2]; TA98, S-9 (-), 78 μg/plate) | Ames test: ratio of the number of colonies to control ([2]; TA98, S-9 (-), 313 μg/plate) | Ames test: ratio of the number of colonies to control ([2]; TA98, S-9 (-), 1250 μg/plate) | Ames test: ratio of the number of colonies to control ([2]; TA98, S-9 (-), 5000 μg/plate) | Hue [3] | Hue ([3]; listed as Comp. Example 2) | Ames test result [4] | AMES evaluation ([2]; TA98, positive/negative from ratio of colonies to control) | Hue ([3]; listed as Comparative Example 1) | Ames test result ([4]; prior art statement, background) |
| --- | --- | --- | --- | --- | --- | --- | --- | --- | --- | --- | --- | --- | --- | --- | --- | --- | --- |
| Nc1ccc(N=Nc2ccc(N=Nc3c(S(=O)(=O)[O-])cc4cc(S(=O)(=O)[O-])c(N=Nc5ccc(N=Nc6ccc(N)cc6N)cc5)c(O)c4c3N)cc2)c(N)c1.[Na+].[Na+] [compound 2, C.I. Direct Black 19, reference compound] | A (Reflection density is more than 70% of that before testing.) | 8.33 | 24.2 | 75.0 | 52.8 | 4.00 | 0.92 | 0.88 | 1.48 | 2.24 | 2.84 | Yellowish | yellowish black | false positive or positive | – | – | – |
| Nc1ccc(N=Nc2ccc(N(c3ccccc3)c3ccc(N=Nc4c(S(=O)(=O)O)cc5cc(S(=O)(=O)O)c(N=Nc6ccccc6)c(O)c5c4N)cc3)cc2)c(O)c1 [Ex. 1] | A (Reflection density is more than 70% of that before testing.) | 1.18 | 1.17 | 1.32 | 0.41 | 0.29 | 0.95 | 0.82 | 0.82 | 0.95 | 0.77 | Reddish | – | – | – | – | – |
| CCCCCCN(c1ccc(N=Nc2ccc(N)cc2O)cc1)c1ccc(N=Nc2c(S(=O)(=O)O)cc3cc(S(=O)(=O)O)c(N=Nc4ccccc4C)c(O)c3c2N)cc1 [Ex. 7] | A (Reflection density is more than 70% of that before testing.) | 1.20 | 1.15 | 0.82 | 0.44 | 0.53 | 1.28 | 1.50 | 1.06 | 1.33 | 0.94 | Reddish | – | – | – | – | – |
| CCC(C)c1ccc(N=Nc2c(S(=O)(=O)O)cc3cc(S(=O)(=O)O)c(N=Nc4ccc(N(c5ccccc5)c5ccc(N=Nc6ccc(O)cc6O)cc5)cc4)c(N)c3c2O)cc1 (centres unmarked) [Ex. 3] | A (Reflection density is more than 70% of that before testing.) | 1.30 | 1.07 | 1.17 | 1.67 | 0.77 | 0.87 | 0.83 | 0.78 | 0.87 | 0.70 | Reddish | – | – | – | – | – |
| Nc1ccc(N=Nc2ccc(Nc3ccc(N=Nc4c(S(=O)(=O)O)cc5cc(S(=O)(=O)O)c(N=Nc6ccccc6)c(O)c5c4N)cc3S(=O)(=O)O)cc2)c(O)c1 [compound 1, C.I. Direct Black 168, reference compound] | C (Reflection density is less than 50% that before testing.) | 0.83 | 0.88 | 1.08 | 1.38 | 3.38 | 0.82 | 1.13 | 0.88 | 0.88 | 0.88 | Reddish | – | – | False positive | Reddish black | false positive or positive |
| Cc1ccc(N(c2ccc(N=Nc3ccc(O)cc3O)cc2)c2ccc(N=Nc3c(S(=O)(=O)O)cc4cc(S(=O)(=O)O)c(N=Nc5ccccc5)c(O)c4c3N)cc2)cc1 [Ex. 2] | B (Reflection density is 50 to 70% of that before testing.) | 1.17 | 1.09 | 1.02 | 0.83 | 0.87 | 1.19 | 1.32 | 1.04 | 1.06 | 1.18 | Reddish | – | – | – | – | – |
| Nc1ccc(N=Nc2ccc(N(c3ccccc3)c3ccc(N=Nc4c(S(=O)(=O)O)cc5cc(S(=O)(=O)O)c(N=Nc6ccc(S(=O)(=O)O)cc6)c(O)c5c4N)cc3)cc2)c(O)c1 [Ex. 4] | A (Reflection density is more than 70% of that before testing.) | 1.23 | 1.22 | 1.21 | 1.51 | 1.17 | 1.06 | 1.02 | 1.05 | 0.99 | 1.02 | Reddish | – | – | – | – | – |
| CN(c1ccc(N=Nc2ccc(N)cc2O)cc1)c1ccc(N=Nc2c(S(=O)(=O)O)cc3cc(S(=O)(=O)O)c(N=Nc4ccccc4)c(O)c3c2N)cc1 [Ex. 5] | B (Reflection density is 50 to 70% of that before testing.) | 1.60 | 1.56 | 1.44 | 1.72 | 1.20 | 1.00 | 0.78 | 0.87 | 1.39 | 1.65 | Reddish | – | – | – | – | – |
| CCCCCCCCN(c1ccc(N=Nc2ccc(N)cc2O)cc1)c1ccc(N=Nc2c(S(=O)(=O)O)cc3cc(S(=O)(=O)O)c(N=Nc4ccc(S(=O)(=O)O)cc4)c(O)c3c2N)cc1 [Ex. 8] | B (Reflection density is 50 to 70% of that before testing.) | 1.25 | 1.22 | 1.16 | 0.88 | 0.91 | 0.98 | 0.94 | 0.91 | 0.93 | 1.02 | Reddish | – | – | – | – | – |
| CCCCN(c1ccc(N=Nc2ccc(N)cc2O)cc1)c1ccc(N=Nc2c(S(=O)(=O)O)cc3cc(S(=O)(=O)O)c(N=Nc4ccc(C(C)CC)cc4)c(O)c3c2N)cc1 (centres unmarked) [Ex. 6] | A (Reflection density is more than 70% of that before testing.) | 1.09 | 1.04 | 1.28 | 1.48 | 1.33 | 0.82 | 1.13 | 1.11 | 1.32 | 1.60 | Reddish | – | – | – | – | – |
